Assay results from BindingDB's records for PubMed 11714898 (Creighton University, 2001).
Residues, ends and D or L forms follow the SMILES beside them.

Columns and labels:
[1] = biological target: Calcitonin gene-related peptide type 1 receptor (Sus scrofa, UniProt Q8WN93)
[2] = biological target: T1, Receptor activity-modifying protein 1 (Sus scrofa, UniProt Q867C0)
T1 sequence (Q867C0 whole entry): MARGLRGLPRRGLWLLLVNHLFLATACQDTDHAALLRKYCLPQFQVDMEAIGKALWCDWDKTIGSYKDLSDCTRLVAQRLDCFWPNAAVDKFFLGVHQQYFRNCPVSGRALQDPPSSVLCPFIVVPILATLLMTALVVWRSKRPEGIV

Calcitonin gene-related peptide type 1 receptor, sequence (Q8WN93 whole entry): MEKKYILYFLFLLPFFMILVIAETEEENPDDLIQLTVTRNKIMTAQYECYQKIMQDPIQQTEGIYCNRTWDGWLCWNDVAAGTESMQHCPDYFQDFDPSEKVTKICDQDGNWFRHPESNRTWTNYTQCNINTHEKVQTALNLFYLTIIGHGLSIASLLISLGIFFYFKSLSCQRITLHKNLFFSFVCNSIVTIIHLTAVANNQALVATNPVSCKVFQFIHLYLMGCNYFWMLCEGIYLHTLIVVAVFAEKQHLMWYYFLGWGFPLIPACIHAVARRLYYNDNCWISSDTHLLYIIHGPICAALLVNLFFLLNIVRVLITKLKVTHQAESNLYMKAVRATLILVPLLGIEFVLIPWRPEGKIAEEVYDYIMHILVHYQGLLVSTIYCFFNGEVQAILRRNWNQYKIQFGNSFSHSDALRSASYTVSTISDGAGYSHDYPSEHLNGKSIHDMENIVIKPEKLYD

SMILES | Ki [1] [nM] | Ki [2] [nM]
CC(C)C[C@H](NC(=O)CNC(=O)[C@H](C)NC(=O)[C@H](CC(C)C)NC(=O)[C@H](CCCN=C(N)N)NC(=O)[C@H](Cc1cnc[nH]1)NC(=O)[C@@H](NC(=O)[C@@H](N)C(C)C)[C@@H](C)O)C(=O)N[C@@H](CC(C)C)C(=O)N[C@@H](CO)C(=O)N[C@@H](CCCN=C(N)N)C(=O)N[C@@H](CO)C(=O)NCC(=O)NCC(=O)N[C@H](C(=O)N[C@H](C(=O)N[C@@H](CCCCN)C(=O)N[C@@H](CC(N)=O)C(=O)N[C@@H](CC(N)=O)C(=O)N[C@@H](Cc1ccccc1)C(=O)N[C@H](C(=O)N1CCC[C@H]1C(=O)N[C@H](C(=O)N[C@@H](CC(N)=O)C(=O)N[C@H](C(=O)NCC(=O)N[C@@H](CO)C(=O)N[C@@H](CCCCN)C(=O)N[C@@H](C)C(=O)N[C@@H](C)C(N)=O)C(C)C)[C@@H](C)O)C(C)C)C(C)C)C(C)C [[Ala37]h alpha-CGRP8-37] (H-VTHRLAGLLSRSGGVVKNNFVPTNVGSKAA-NH2) | 500 | 1020
CC(C)[C@H](NC(=O)[C@H](CC(N)=O)NC(=O)[C@@H](NC(=O)[C@@H]1CCCN1C(=O)[C@@H](NC(=O)[C@@H](N)Cc1ccccc1)C(C)C)[C@@H](C)O)C(=O)NCC(=O)N1CCC[C@H]1C(=O)N[C@@H](Cc1ccccc1)C(=O)N[C@@H](C)C(=O)N[C@@H](Cc1ccccc1)C(N)=O [[Pro34,Phe35]h alpha-CGRP27-37] (H-FVPTNVGPFAF-NH2) | 50.7 | 118
CC(C)C[C@H](NC(=O)[C@H](CCCNC(=N)N)NC(=O)[C@H](Cc1cnc[nH]1)NC(=O)[C@@H](NC(=O)[C@@H](NC(=O)[C@@H]1CSSC[C@H](NC(=O)[C@H](C)N)C(=O)N[C@@H](CC(=O)O)C(=O)N[C@@H]([C@@H](C)O)C(=O)N[C@@H](C)C(=O)N[C@@H]([C@@H](C)O)C(=O)N1)C(C)C)[C@@H](C)O)C(=O)N[C@@H](C)C(=O)N1CCC[C@H]1C(=O)N[C@@H](CC(C)C)C(=O)N[C@@H](CC(C)C)C(=O)N[C@@H](CO)C(=O)N[C@@H](CCCNC(=N)N)C(=O)N[C@@H](CO)C(=O)NCC(=O)NCC(=O)N[C@H](C(=O)N[C@H](C(=O)N[C@@H](CCCCN)C(=O)N[C@@H](CC(N)=O)C(=O)N[C@@H](CC(N)=O)C(=O)N[C@@H](Cc1ccccc1)C(=O)N[C@H](C(=O)N1CCC[C@H]1C(=O)N[C@H](C(=O)N[C@@H](CC(N)=O)C(=O)N[C@H](C(=O)NCC(=O)N[C@@H](CO)C(=O)N[C@@H](CCCCN)C(=O)N[C@@H](C)C(=O)N[C@@H](Cc1ccccc1)C(N)=O)C(C)C)[C@@H](C)O)C(C)C)C(C)C)C(C)C [[Pro14]h alpha-CGRP] (HELM PEPTIDE1{A.C.D.T.A.T.C.V.T.H.R.L.A.P.L.L.S.R.S.G.G.V.V.K.N.N.F.V.P.T.N.V.G.S.K.A.F.[am]}$PEPTIDE1,PEPTIDE1,2:R3-7:R3$$$V2.0) | 9 | 5.5
CC(C)C[C@H](NC(=O)CNC(=O)[C@H](C)NC(=O)[C@H](CC(C)C)NC(=O)[C@H](CCCN=C(N)N)NC(=O)[C@H](Cc1cnc[nH]1)NC(=O)[C@@H](NC(=O)[C@@H](NCc1ccc(O)cc1)C(C)C)[C@@H](C)O)C(=O)N[C@@H](CC(C)C)C(=O)N[C@@H](CO)C(=O)N[C@@H](CCCN=C(N)N)C(=O)N[C@@H](CO)C(=O)NCC(=O)NCC(=O)N[C@H](C(=O)N[C@H](C(=O)N[C@@H](CCCCN)C(=O)N[C@@H](CC(N)=O)C(=O)N[C@@H](CC(N)=O)C(=O)N[C@@H](Cc1ccccc1)C(=O)N[C@H](C(=O)N1CCC[C@H]1C(=O)N[C@H](C(=O)N[C@@H](CC(N)=O)C(=O)N[C@H](C(=O)NCC(=O)N[C@@H](CO)C(=O)N[C@@H](CCCCN)C(=O)N[C@@H](C)C(=O)N[C@@H](Cc1ccccc1)C(N)=O)C(C)C)[C@@H](C)O)C(C)C)C(C)C)C(C)C [[N-benzol]h alpha-CGRP8-37] | 0.27 | 0.072
CC(C)C[C@H](NC(=O)CNC(=O)[C@H](C)NC(=O)[C@H](CC(C)C)NC(=O)[C@H](CCCNC(=N)N)NC(=O)[C@H](Cc1cnc[nH]1)NC(=O)[C@@H](NC(=O)[C@@H](NC(=O)[C@@H]1NC(=O)[C@H]([C@@H](C)O)NC(=O)[C@H](C)NC(=O)[C@H]([C@@H](C)O)NC(=O)[C@H](CC(=O)O)NC(=O)[C@H](NC(=O)[C@H](C)N)C(C)(C)SSC1(C)C)C(C)C)[C@@H](C)O)C(=O)N[C@@H](CC(C)C)C(=O)N[C@@H](CO)C(=O)N[C@@H](CCCNC(=N)N)C(=O)N[C@@H](CO)C(=O)NCC(=O)NCC(=O)N[C@H](C(=O)N[C@H](C(=O)N[C@@H](CCCCN)C(=O)N[C@@H](CC(N)=O)C(=O)N[C@@H](CC(N)=O)C(=O)N[C@@H](Cc1ccccc1)C(=O)N[C@H](C(=O)N1CCC[C@H]1C(=O)N[C@H](C(=O)N[C@@H](CC(N)=O)C(=O)N[C@H](C(=O)NCC(=O)N[C@@H](CO)C(=O)N[C@@H](CCCCN)C(=O)N[C@@H](C)C(=O)N[C@@H](Cc1ccccc1)C(N)=O)C(C)C)[C@@H](C)O)C(C)C)C(C)C)C(C)C [[D-Pen2,7]h alpha-CGRP] | 21 | 15.2

The next lines start with the values.

Ki [1] [nM] | Ki [2] [nM] | SMILES
– | 5.7 | CC(C)C[C@H](NC(=O)CNC(=O)[C@H](C)NC(=O)[C@H](CC(C)C)NC(=O)[C@H](CCCNC(=N)N)NC(=O)[C@H](Cc1cnc[nH]1)NC(=O)[C@@H](NC(=O)[C@@H](N)C(C)C)[C@@H](C)O)C(=O)N[C@@H](CC(C)C)C(=O)N[C@@H](CO)C(=O)N[C@@H](CCCNC(=N)N)C(=O)N[C@@H](CO)C(=O)NCC(=O)NCC(=O)N[C@H](C(=O)N[C@H](C(=O)N[C@@H](CCCCN)C(=O)N[C@@H](CC(N)=O)C(=O)N[C@@H](CC(N)=O)C(=O)N[C@@H](Cc1ccccc1)C(=O)N[C@H](C(=O)N1CCC[C@H]1C(=O)N[C@H](C(=O)N[C@@H](CC(N)=O)C(=O)N[C@H](C(=O)NCC(=O)N[C@@H](CO)C(=O)N[C@@H](CCCCN)C(=O)N[C@@H](C)C(=O)N[C@@H](Cc1ccccc1)C(N)=O)C(C)C)[C@@H](C)O)C(C)C)C(C)C)C(C)C
38.4 | 32 | CC(=O)NCSC[C@H](NC(=O)[C@H](C)N)C(=O)N[C@@H](CC(=O)O)C(=O)N[C@H](C(=O)N[C@@H](C)C(=O)N[C@H](C(=O)N[C@@H](CSCNC(C)=O)C(=O)N[C@H](C(=O)N[C@H](C(=O)N[C@@H](Cc1cnc[nH]1)C(=O)N[C@@H](CCCNC(=N)N)C(=O)N[C@@H](CC(C)C)C(=O)N[C@@H](C)C(=O)NCC(=O)N[C@@H](CC(C)C)C(=O)N[C@@H](CC(C)C)C(=O)N[C@@H](CO)C(=O)N[C@@H](CCCNC(=N)N)C(=O)N[C@@H](CO)C(=O)NCC(=O)NCC(=O)N[C@H](C(=O)N[C@H](C(=O)N[C@@H](CCCCN)C(=O)N[C@@H](CC(N)=O)C(=O)N[C@@H](CC(N)=O)C(=O)N[C@@H](Cc1ccccc1)C(=O)N[C@H](C(=O)N1CCC[C@H]1C(=O)N[C@H](C(=O)N[C@@H](CC(N)=O)C(=O)N[C@H](C(=O)NCC(=O)N[C@@H](CO)C(=O)N[C@@H](CCCCN)C(=O)N[C@@H](C)C(=O)N[C@@H](Cc1ccccc1)C(N)=O)C(C)C)[C@@H](C)O)C(C)C)C(C)C)C(C)C)[C@@H](C)O)C(C)C)[C@@H](C)O)[C@@H](C)O [[Cys(ACM)2,7]h alpha-CGRP]
– | 1.3 | CC(=O)N[C@H](C(=O)N[C@H](C(=O)N[C@@H](Cc1cnc[nH]1)C(=O)N[C@@H](CCCN=C(N)N)C(=O)N[C@@H](CC(C)C)C(=O)N[C@@H](C)C(=O)NCC(=O)N[C@@H](CC(C)C)C(=O)N[C@@H](CC(C)C)C(=O)N[C@@H](CO)C(=O)N[C@@H](CCCN=C(N)N)C(=O)N[C@@H](CO)C(=O)NCC(=O)NCC(=O)N[C@H](C(=O)N[C@H](C(=O)N[C@@H](CCCCN)C(=O)N[C@@H](CC(N)=O)C(=O)N[C@@H](CC(N)=O)C(=O)N[C@@H](Cc1ccccc1)C(=O)N[C@H](C(=O)N1CCC[C@H]1C(=O)N[C@H](C(=O)N[C@@H](CC(N)=O)C(=O)N[C@H](C(=O)NCC(=O)N[C@@H](CO)C(=O)N[C@@H](CCCCN)C(=O)N[C@@H](C)C(=O)N[C@@H](Cc1ccccc1)C(N)=O)C(C)C)[C@@H](C)O)C(C)C)C(C)C)C(C)C)[C@@H](C)O)C(C)C [[N-acetyl]h alpha-CGRP8-37]
– | 0.08 | CC(C)C[C@H](NC(=O)CNC(=O)[C@H](C)NC(=O)[C@H](CC(C)C)NC(=O)[C@H](CCCNC(=N)N)NC(=O)[C@H](Cc1cnc[nH]1)NC(=O)[C@@H](NC(=O)[C@@H](NC(=O)[C@@H]1CSSC[C@H](NC(=O)[C@H](C)N)C(=O)N[C@@H](CC(=O)O)C(=O)N[C@@H]([C@@H](C)O)C(=O)N[C@@H](C)C(=O)N[C@@H]([C@@H](C)O)C(=O)N1)C(C)C)[C@@H](C)O)C(=O)N[C@@H](CC(C)C)C(=O)N[C@@H](CO)C(=O)N[C@@H](CCCNC(=N)N)C(=O)N[C@@H](CO)C(=O)NCC(=O)NCC(=O)N[C@H](C(=O)N[C@H](C(=O)N[C@@H](CCCCN)C(=O)N[C@@H](CC(N)=O)C(=O)N[C@@H](CC(N)=O)C(=O)N[C@@H](Cc1ccccc1)C(=O)N[C@H](C(=O)N1CCC[C@H]1C(=O)N[C@H](C(=O)N[C@@H](CC(N)=O)C(=O)N[C@H](C(=O)NCC(=O)N[C@@H](CO)C(=O)N[C@@H](CCCCN)C(=O)N[C@@H](C)C(=O)N[C@@H](Cc1ccccc1)C(N)=O)C(C)C)[C@@H](C)O)C(C)C)C(C)C)C(C)C [h alpha-CGRP]
32.7 | 37.9 | CC(C)C[C@H](NC(=O)CNC(=O)[C@H](C)NC(=O)[C@H](CC(C)C)NC(=O)[C@H](CCCN=C(N)N)NC(=O)[C@H](Cc1cnc[nH]1)NC(=O)[C@@H](NC(=O)[C@@H](N)C(C)C)[C@@H](C)O)C(=O)N[C@@H](CC(C)C)C(=O)N[C@@H](CO)C(=O)N[C@@H](CCCN=C(N)N)C(=O)N[C@@H](CO)C(=O)NCC(=O)NCC(=O)N[C@H](C(=O)N[C@H](C(=O)N[C@@H](CCCCN)C(=O)N[C@@H](CC(N)=O)C(=O)N[C@@H](CC(N)=O)C(=O)N[C@@H](Cc1ccccc1)C(=O)N[C@H](C(=O)N1CCC[C@H]1C(=O)N[C@H](C(=O)N[C@@H](CC(N)=O)C(=O)N[C@H](C(=O)NCC(=O)N[C@@H](CO)C(=O)N[C@@H](CCCCN)C(=O)N[C@@H](C)C(=O)N[C@@H](CC1CCCCC1)C(N)=O)C(C)C)[C@@H](C)O)C(C)C)C(C)C)C(C)C [[Cha37]h alpha-CGRP8-37] (HELM PEPTIDE1{V.T.H.R.L.A.G.L.L.S.R.S.G.G.V.V.K.N.N.F.V.P.T.N.V.G.S.K.A.[Cha].[am]}$$$$V2.0)
